Results: patent US20210015793A1, “COMPOUNDS FOR TREATING CNS- AND NEURODEGENERATIVE DISEASES” (ETH ZURICH, priority 2018, published 2021)

System: MPP1
Assay: Immunoblot of MPP1 content in PBMN cells of elderly human research participants
Format: in vivo
Settings: 28 days, daily dose of 60 mg
Description: For protein separation by SDS-PAGE (Laemmli system), the protein pellet can be dissolved in SDS-PAGE sample buffer supplemented with SDS. As an alternative, sample buffer for native gel electrophoresis can be added. According to the original protocol, the SDS-PAGE Laemmli sample buffer contains 2% SDS, 0.1 M DTT (or 5% mercaptoethanol). To improve disaggregation of aggregated proteins, the buffer can be supplemented without or with urea ranging from about 0 M-8 M, preferably about 6 M urea and incubated for about 10 min to 24 h, preferably about 90 min at room temperature. Proteins can be stored frozen (about […]) at a concentration ranging from about 0.01-100 mg/ml, preferably about 0.5 mg-1 mg/ml, for further use. It may be further desirable to dilute the solubilisate, for example, diluting the supernatant solubilisate by 1:1-1:20, preferably 1:5, in a suitable buffer as described above (preferably supplemented with protease inhibitors). Before immunoblot detection of proteins, proteins are separated. For separation of proteins, one- or two-dimensional SDS-PAGE can be applied. […]

SMILES: O=C(C1=C(O)C(c2ccc(F)cc2)N(c2ccc3c(c2)OCO3)C1=O)C1CC1 (stereo not shown) [Compound-1F, 1-(1,3-Benzodioxol-5-yl)-4-(cyclopropanecarbonyl)-2-(4-fluorophenyl)-3-hydroxy-2H-pyrrol-5-one]
- senescence marker protein MPP1 in PBMN cells vs before treatment: significant decrease
